# Laboratory results: patent US20100311726A1, “REDUCTION OF BETA-AMYLOID LEVELS BY TREATMENT WITH THE SMALL MOLECULE DIFFERENTIATION-INDUCING FACTOR” (priority 2007, published 2010)
# Tests used:
# Aβ40 = experiment: Secreted Aβ40 sandwich ELISA of conditioned media; format: cell-based, human
# Description: (§1) The levels of secreted Aβ from CHO-7W cells stably overexpressing APP^751 and CHO-CAB cells that overexpress APP^751 and human BACE1 was quantified by ELISA and viewed by western blot using the monoclonal anti-APP antibody (6E10) that recognizes residues 1-17 of Aβ. Cells (5×10^5) were deposited into 6-well tissue culture dishes in triplicate and allowed to settle and grow for 24 hours. At this time, the media was aspirated and the cells were washed 2× in warm PBS. Fresh media (2 mL) and media supplemented with vehicle or DIF-1 was added to each well. […] Since DIF-1 exerts a cytostatic effect, the cell number was counted for all treatments upon removal of the conditioned media and used to normalize the levels of Aβ. […] The concentration of Aβ40 and Aβ42 was subsequently detected in triplicate using the β-Amyloid 1-40 or 1-42 Colorimetric ELISA kit (Biosource International, Inc.) according to the manufacturer's instructions.
# (§2) We then looked at what effect this had on the levels of secreted soluble APP and Aβ production. […] The conditioned media was analyzed using anti-APP antibody 6E10 in order to detect total βP levels and sαAPP levels since it recognizes the amino acids 1-17 of Aβ and thus cannot detect sβAPP. […] The blots were analyzed using a phosphorimager. […]
# cyclin D1 = experiment: Cyclin D1 level by western blot
# Description: Following treatment of each cell line with or without DIF-1 (1-30 μM) and/or other inhibitors, cells were lysed in cold RIPA buffer (20 mM Tris-HCl (pH 7.4) buffer containing 150 mM NaCl, 2 mM EDTA, 1% Nonidet® P-40 (NP-40), 50 mM NaF, 1 mM Na3VO4, 1 mM Na2MoO4, 10 mg/ml aprotinin, and 10 mg/ml leupeptin), supplemented with protease inhibitor tablets from Roche (Switzerland). Protein amounts were quantified in triplicate using the BCA assay from Pierce. Equal amounts of protein extracts were fractionated by sodium dodecyl sulfate polyacrylamide gel electrophoresis (SDS-PAGE) and transferred to polyvinylidene difluoride membranes. The membranes were blocked for 1 hour with 5% fat-free powdered milk or 5% BSA, incubated overnight at 4° C. with primary antibodies (1:1000 or 1:5000), washed with TTBS and then incubated at room temperature with appropriate peroxidase-conjugated secondary antibodies (1:5000). Blots were repeatedly washed with TTBS and target proteins were detected using an enhanced chemiluminescence (ECL) system (Amersham Pharmacia Biotech, New Jersey, USA) and XOMAT™ Kodak® film.
# Densitometry analysis of western blot data was performed on a PC computer using QuantityOne® software obtained from Bio-Rad® Laboratories, Inc. (California, USA). Loading variations between western blot lanes were normalized according to the GAPDH signal prior to any experimental quantification. Each western blot presented in the figures is representative of at least five independent experiments to ensure reproducibility of the results unless noted otherwise.
# CHO-CAB cells were treated with lithium chloride (10mM). […] To ensure that the results observed were due to proteasome inhibition, we assessed the effects of lactacystin and ALLN on cyclin D1 levels. […] The data represents that of three separate experiments.
# Aβ42 = experiment: Secreted Aβ42 sandwich ELISA of conditioned media; format: cell-based, human
# Description: as §1, §2
# Dictyostelium discoideum = settings: Masento et al., 1988; cited from earlier work
# [1] = system: CHO cells stably expressing human wild type APP^751 (CHO-7W); experiment: Cell proliferation assay in APP-expressing CHO cells; format: cell-based, Chinese Hamster
# Text: For proliferation assays, 1×10^4 cells were deposited into 24-well plates and treated with vehicle (ethanol or DMSO) or with various amounts of DIF-1 or DIF-3 for a period of 4 days. Cells were harvested after each day by trypsin/EDTA treatment, stained with an equal volume of 0.05% Trypan blue and enumerated in triplicate twice using a haemocytometer. Dead cells are stained blue, but live cells with intact cell membranes are not coloured. Data represents the mean cell number±the standard deviation for at least 3 separate experiments.
# as §1, with “Aβ.” for “Aβ. Cells (5×10^5) were deposited into 6-well tissue culture dishes in triplicate and allowed to settle and grow for 24 hours. At this time, the media was aspirated and the cells were washed 2× in warm PBS. Fresh media (2 mL) and media supplemented with vehicle or DIF-1 was added to each well.”
# Cells seeded on a 6-well plate were incubated with various concentrations of DIF-1. Cells were harvested by the trypsin/EDTA treatment at the times indicated and counted with a haemocytometer. […]
# CHO-CAB cells = experiment: Confocal fluorescence microscopy of CHO-CAB cells; format: cell-based, Chinese Hamster; settings: 30 μM overnight
# Description: CHO-CAB cells were grown on multi-well chamber slides and treated overnight with 30 μM DIF-1. The cells were fixed with 4% paraformaldehyde/PBS, permeabilized with 0.1% Triton X-100/PBS for 10 min and blocked with 5% goat serum/PBS. APP (rabbit C-terminal 8717), PDI (ER marker), GM130 (golgi marker), and ubiquitin were detected using their corresponding antibodies and Alexa Fluor-conjugated secondary antibodies. Nuclei were stained with Hoechst 33342 (Molecular Probes/Invitrogen). Confocal fluorescence images were obtained using an Olympus DSU/IX70 spinning disc confocal microscope and processed using IPLab software (Scanalytics/BD Biosciences).
# Next, the effect of DIF-1 on APP trafficking and subcellular distribution was assessed. Cells were fixed with 4% paraformaldehyde/PBS, permeabilized with 0.1% Triton X-100/PBS and blocked with 5% goat serum/PBS. Confocal microscopy of CHO-CAB cells stained with APP antibodies together with the ER marker PDI or golgi marker GM130 confirmed that APP primarily co-localized with GM130 and PDI (FIG. 14A). […] ER structure upon DIF-1 treatment became highly vacuolated but to a varying degree within populations of cells.
# [2] = conditioned media from either CHO-7W or CHO-CAB cells
smiles,measurement,setting,value
"CCCCCC(=O)c1c(O)c(Cl)c(OC)c(Cl)c1O [DIF-1, 1-[3,5-dichloro-2,6-dihydroxy-4-methoxyphenyl]-1-hexanone]",reduction of secreted Aβ40,"Aβ40; CHO-7W, 30 μM overnight",about 48.5±0.91%
same,reduction of secreted levels of Aβ40,Aβ40; [2],44.2±3.4%
same,reduction of cyclin D1 level,"cyclin D1; 30 μM, 18-20 hours, CHO-CAB cells and mouse embryonic fibroblasts",~82.56±0.74%
same,effect on cyclin D1 level,"cyclin D1; CHO-7W, 30 μM DIF-1 or 250 nM DAPT",markedly decreased
same,"effect on cyclin D1 accumulation, co-treatment with lactacystin or ALLN",cyclin D1; CHO-CAB,inhibited the accumulation of cyclin D1
same,reduction of secreted Aβ42,"Aβ42; CHO-7W, 30 μM overnight",63.9±7.15%
same,reduction of secreted levels of Aβ42,Aβ42; [2],66.9±2.6%
same,absolute specific activity in stalk-cell differentiation,Dictyostelium discoideum,sub-nanomolar range
same,total cell number of vehicle treated cells higher than DIF-1 treated cells,"[1]; 25 μM, after 20 hours, CHO-7W and CHO-CAB",~10%
same,"antiproliferative effect in CHO-7W compared to naïve cells (value in brackets, quantity not named)",[1]; CHO-7W,30.6%±1.3
same,ER structure (PDI marker),CHO-CAB cells,disruption in the structure of the ER
same,subcellular distribution of APP,CHO-CAB cells,enriched around the nuclear periphery
